Legend:
Assay type in all cases: in vivo
[1] = test system: barnyardgrass (Echinochloa crus-galli); test: Test A postemergence application, visual injury rating 0-100
Method in brief: (§1)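 Compound in a non-phytotoxic, surfactant-containing solvent is applied either as a directed soil spray before seedlings emerge or onto emerged plants 2-10 cm tall; pots hold a loam-sand blend. Plants grow 10 days under greenhouse conditions and are rated by eye against untreated controls (0 no effect, 100 complete control).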

[2] = test system: blackgrass (Alopecurus myosuroides); test: as above
Method in brief: as §1

[3] = test system: palmer (palmer amaranth, palmer pigweed, Amaranthus palmeri); test: as above
Method in brief: as §1

[4] = test system: kochia (Bassia scoparia); test: as above
Method in brief: as §1

[5] = test system: horseweed (Erigeron canadensis); test: as above
Method in brief: as §1

[6] = test system: corn (Zea mays); test: as above
Method in brief: as §1

[7] = test system: galium (catchweed bedstraw, Galium aparine); test: as above
Method in brief: as §1

[8] = test system: oat, wild (wild oat, Avena fatua); test: as above
Method in brief: as §1

[9] = test system: soybean (Glycine max); test: as above
Method in brief: as §1

[10] = test system: green foxtail (Setaria viridis); test: as above
Method in brief: as §1

[11] = test system: ryegrass, Italian (italian ryegrass, Lolium multiflorum); test: as above
Method in brief: as §1

[12] = test system: ragweed (common ragweed, Ambrosia artemisiifolia); test: as above
Method in brief: as §1

[13] = test system: wheat (Triticum aestivum); test: as above
Method in brief: as §1

[14] = test system: sedge, umbrella (small-flower umbrella sedge, Cyperus difformis); test: Test B flooded paddy test, visual plant response rating 0-100; settings: 250 g ai/ha, Flood, applied to paddy water, evaluated after 13 days
Method in brief: (§2)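 2-leaf plants; flood 3 cm over soil; compound dosed into paddy water; depth kept constant; greenhouse 13 d; visual scoring vs controls. Dash = no result.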

[15] = test system: ducksalad (Heteranthera limosa); test: as above; settings: 250 g ai/ha, Flood, applied to paddy water, evaluated after 13 days
Method in brief: as §2

[16] = test system: barnyardgrass (Echinochloa crusgalli); test: as above; settings: 250 g ai/ha, Flood, applied to paddy water, evaluated after 13 days
Method in brief: as §2

[17] = test system: rice (Oryza sativa); test: as above; settings: 250 g ai/ha, Flood, applied to paddy water, evaluated after 13 days
Method in brief: as §2

[18] = test system: barnyardgrass (Echinochloa crus-galli); test: Test A preemergence soil spray, visual injury rating 0-100; settings: 10 days
Method in brief: as §1

[19] = test system: blackgrass (Alopecurus myosuroides); test: as above; settings: 10 days
Method in brief: as §1

[20] = test system: palmer (palmer amaranth, palmer pigweed, Amaranthus palmeri); test: as above; settings: 10 days
Method in brief: as §1

[21] = test system: kochia (Bassia scoparia); test: as above; settings: 10 days
Method in brief: as §1

[22] = test system: corn (Zea mays); test: as above; settings: 10 days
Method in brief: as §1

[23] = test system: oat, wild (wild oat, Avena fatua); test: as above; settings: 10 days
Method in brief: as §1

[24] = test system: soybean (Glycine max); test: as above; settings: 10 days
Method in brief: as §1

[25] = test system: green foxtail (Setaria viridis); test: as above; settings: 10 days
Method in brief: as §1

[26] = test system: ryegrass, Italian (italian ryegrass, Lolium multiflorum); test: as above; settings: 10 days
Method in brief: as §1

[27] = test system: ragweed (common ragweed, Ambrosia artemisiifolia); test: as above; settings: 10 days
Method in brief: as §1

[28] = test system: wheat (Triticum aestivum); test: as above; settings: 10 days
Method in brief: as §1

[29] = 62 g ai/ha, postemergence, 10 days, 0 = no effect, 100 = complete control
[30] = Postemergence, 16 g ai/ha, greenhouse 10 days, 0 no effect, 100 complete control
[31] = 62 g ai/ha, 0 = no effect, 100 = complete control

CC1(C(=O)NC2C=CC(C(=O)O)C2)CN(c2cc(F)cc(F)c2)C(=O)O1 (stereo not shown) [Compound 131]
70: Galium plant response rating (0 to 100 scale) [7, 30] | Ragweed plant response rating (0-100) [12, 29] | Plant response rating, Rice (0 to 100 scale, 0 is no effect and 100 is complete control) [17]
20: Pigweed, Palmer plant response rating (0 to 100 scale) [3, 30] | Kochia plant response rating (0 to 100 scale) [4, 30]
10: Ryegrass, Italian plant response rating (0 to 100 scale) [11, 30] | Corn plant response rating ([22]; 16 g ai/ha, 0 to 100 scale) | Ragweed plant response rating (0-100) [27, 31]
40: Horseweed plant response rating (0 to 100 scale) [5, 30]
50: Kochia plant response rating (0-100) [4, 29] | Corn plant response rating (0 to 100 scale) [6, 30]
100: Barnyardgrass plant response rating (0-100) [1, 29] | Corn plant response rating (0-100) [6, 29] | Foxtail, Green plant response rating (0-100) [25, 31]
90: Barnyardgrass plant response rating (0 to 100 scale) [1, 30] | Blackgrass plant response rating (0-100) [2, 29] | Blackgrass plant response rating (0 to 100 scale) [2, 30] | Galium plant response rating (0-100) [7, 29] | Oat, Wild plant response rating (0-100) [8, 29] | Oat, Wild plant response rating (0 to 100 scale) [8, 30] | Foxtail, Green plant response rating (0-100) [10, 29] | Ryegrass, Italian plant response rating (0-100) [11, 29] | Wheat plant response rating (0-100) [13, 29] | Wheat plant response rating (0 to 100 scale) [13, 30] | Blackgrass plant response rating (0-100) [19, 31] | Kochia plant response rating (0-100) [21, 31] | Ryegrass, Italian plant response rating (0-100) [26, 31] | Wheat plant response rating (0-100) [28, 31]
0: Ragweed plant response rating (0 to 100 scale) [12, 30] | Barnyardgrass plant response rating ([18]; 16 g ai/ha, 0 to 100 scale) | Pigweed, Palmer plant response rating ([20]; 16 g ai/ha, 0 to 100 scale) | Kochia plant response rating ([21]; 16 g ai/ha, 0 to 100 scale) | Oat, Wild plant response rating ([23]; 16 g ai/ha, 0 to 100 scale) | Soybean plant response rating ([24]; 16 g ai/ha, 0 to 100 scale) | Foxtail, Green plant response rating ([25]; 16 g ai/ha, 0 to 100 scale) | Ryegrass, Italian plant response rating ([26]; 16 g ai/ha, 0 to 100 scale) | Ragweed plant response rating ([27]; 16 g ai/ha, 0 to 100 scale)
30: Foxtail, Green plant response rating (0 to 100 scale) [10, 30] | Blackgrass plant response rating ([19]; 16 g ai/ha, 0 to 100 scale) | Wheat plant response rating ([28]; 16 g ai/ha, 0 to 100 scale)
60: Oat, Wild plant response rating (0-100) [23, 31]
80: Pigweed, Palmer plant response rating (0-100) [3, 29] | Horseweed plant response rating (0-100) [5, 29] | Soybean plant response rating (0-100) [9, 29] | Soybean plant response rating (0 to 100 scale) [9, 30] | Plant response rating, Ducksalad (0 to 100 scale, 0 is no effect and 100 is complete control) [15] | Barnyardgrass plant response rating (0-100) [18, 31] | Pigweed, Palmer plant response rating (0-100) [20, 31] | Corn plant response rating (0-100) [22, 31] | Soybean plant response rating (0-100) [24, 31]
95: Plant response rating, Sedge, Umbrella (0 to 100 scale, 0 is no effect and 100 is complete control) [14] | Plant response rating, Barnyardgrass (0 to 100 scale, 0 is no effect and 100 is complete control) [16]
